Reference: ChEMBL document CHEMBL1201862, “PubChem BioAssay data set” (2004)
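Test compounds were applied to cells in 96-well plates for 48 hours at 5 doses. The concentration for 50% growth inhibition is given as GI50.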 Activity calls are given as the source filed them. No stated cut-off is given here; in the data, active = GI50 up to about 1.1 µM and inactive = higher.

Legend:
Assay in all cases: NCI anticancer screen, dose series, 48 h
HL-60 = tested on: HL-60
SK-MEL-2 = tested on: SK-MEL-2
HOP-92 = tested on: HOP-92
OVCAR-8 = tested on: OVCAR-8
SF-539 = tested on: SF-539
OVCAR-3 = tested on: OVCAR-3
HCT-116 = tested on: HCT-116
NCI-H522 = tested on: NCI-H522
UO-31 = tested on: UO-31
U-251 = tested on: U-251
ACHN = tested on: ACHN
UACC-257 = tested on: UACC-257
SK-OV-3 = tested on: SK-OV-3
CAKI-1 = tested on: CAKI-1
SNB-75 = tested on: SNB-75
COLO 205 = tested on: COLO 205
MDA-MB-231 = tested on: MDA-MB-231
MDA-N = tested on: MDA-N
NCI/ADR-RES = tested on: NCI/ADR-RES

SMILES	GI50 (HL-60)	GI50 (SK-MEL-2)	GI50 (HOP-92)	GI50 (OVCAR-8)	GI50 (SF-539)	GI50 (OVCAR-3)	GI50 (HCT-116)	GI50 (NCI-H522)	GI50 (UO-31)	GI50 (U-251)	GI50 (ACHN)	GI50 (UACC-257)	GI50 (SK-OV-3)	GI50 (CAKI-1)	GI50 (SNB-75)	GI50 (COLO 205)	GI50 (MDA-MB-231)	GI50 (MDA-N)	GI50 (NCI/ADR-RES)
CCc1cccc(C(C)CC)c1NC(=O)C(=O)Cc1nc2ccccc2o1 (stereo unspecified)	> 50 µM (inactive)	> 50 µM (inactive)	> 50 µM (inactive)	> 50 µM (inactive)	> 50 µM (inactive)	> 50 µM (inactive)	> 50 µM (inactive)	> 50 µM (inactive)	> 50 µM (inactive)	> 50 µM (inactive)	> 50 µM (inactive)	> 50 µM (inactive)	> 50 µM (inactive)	> 50 µM (inactive)	> 50 µM (inactive)	> 50 µM (inactive)	–	–	–
CC1=C(C(=O)Nc2cccc(Cl)c2)C(c2ccccc2F)C(C(=O)Nc2cccc(Cl)c2)=C(C)N1	3.78 µM (inactive)	11.6 µM (inactive)	1.15 µM (inactive)	17 µM (inactive)	13.9 µM (inactive)	10.8 µM (inactive)	–	9.16 µM (inactive)	7.94 µM (inactive)	12.6 µM (inactive)	9.98 µM (inactive)	10.2 µM (inactive)	21.5 µM (inactive)	4.99 µM (inactive)	6.79 µM (inactive)	11.2 µM (inactive)	–	–	–
CCCN1CC=CCC1	> 100 µM (inactive)	> 100 µM (inactive)	> 100 µM (inactive)	> 100 µM (inactive)	> 100 µM (inactive)	> 100 µM (inactive)	> 100 µM (inactive)	> 100 µM (inactive)	> 100 µM (inactive)	> 100 µM (inactive)	> 100 µM (inactive)	> 100 µM (inactive)	> 100 µM (inactive)	–	> 100 µM (inactive)	> 100 µM (inactive)	–	–	–
COc1ccc2oc3c4c2c1CCC4CCC3=O (stereo unspecified)	> 100 µM (inactive)	> 100 µM (inactive)	55.7 µM (inactive)	59.4 µM (inactive)	> 100 µM (inactive)	> 100 µM (inactive)	–	58.2 µM (inactive)	25.2 µM (inactive)	> 100 µM (inactive)	> 100 µM (inactive)	16.8 µM (inactive)	> 100 µM (inactive)	–	28.1 µM (inactive)	> 100 µM (inactive)	–	–	–
COC(=O)C(=O)C(C(C)=O)C(=O)NCc1ccccc1 (stereo unspecified)	> 100 µM (inactive)	> 100 µM (inactive)	> 100 µM (inactive)	> 100 µM (inactive)	> 100 µM (inactive)	> 100 µM (inactive)	> 100 µM (inactive)	> 100 µM (inactive)	> 100 µM (inactive)	82.2 µM (inactive)	> 100 µM (inactive)	> 100 µM (inactive)	–	> 100 µM (inactive)	> 100 µM (inactive)	> 100 µM (inactive)	–	–	–
O=C(Cc1ccccc1)N/N=C(\C1=Nc2ccc([N+](=O)[O-])cc2NC1O)C(O)c1ccc([N+](=O)[O-])cc1 (stereo unspecified)	19.9 µM (inactive)	> 100 µM (inactive)	> 100 µM (inactive)	> 100 µM (inactive)	> 100 µM (inactive)	> 100 µM (inactive)	> 100 µM (inactive)	7.89 µM (inactive)	52.8 µM (inactive)	> 100 µM (inactive)	78 µM (inactive)	> 100 µM (inactive)	> 100 µM (inactive)	> 100 µM (inactive)	> 100 µM (inactive)	64.1 µM (inactive)	–	–	–
CCOP(=O)(OCC)C(C(=O)OC)C(=O)C(=O)Nc1c(C)cc(Br)cc1C (stereo unspecified)	> 100 µM (inactive)	> 100 µM (inactive)	> 100 µM (inactive)	> 100 µM (inactive)	> 100 µM (inactive)	> 100 µM (inactive)	> 100 µM (inactive)	> 100 µM (inactive)	> 100 µM (inactive)	> 100 µM (inactive)	> 100 µM (inactive)	> 100 µM (inactive)	> 100 µM (inactive)	> 100 µM (inactive)	> 100 µM (inactive)	> 100 µM (inactive)	–	–	–
O=C1/C(=N/c2ccc(Nc3ccccc3)cc2)Oc2ccccc21	1.99 µM (inactive)	3.3 µM (inactive)	–	2.64 µM (inactive)	3.27 µM (inactive)	1.97 µM (inactive)	1.67 µM (inactive)	1.83 µM (inactive)	2.35 µM (inactive)	1.69 µM (inactive)	3.18 µM (inactive)	2.42 µM (inactive)	5.98 µM (inactive)	1.85 µM (inactive)	2.15 µM (inactive)	1.65 µM (inactive)	2.27 µM (inactive)	2.74 µM (inactive)	1.9 µM (inactive)
CCOc1ccc2c(c1)[n+]([O-])c(S(=O)(=O)c1ccc(C)cc1)c(N)[n+]2[O-]	> 100 µM (inactive)	> 100 µM (inactive)	> 100 µM (inactive)	> 100 µM (inactive)	> 100 µM (inactive)	> 100 µM (inactive)	> 100 µM (inactive)	49.2 µM (inactive)	> 100 µM (inactive)	> 100 µM (inactive)	> 100 µM (inactive)	> 100 µM (inactive)	> 100 µM (inactive)	> 100 µM (inactive)	91.6 µM (inactive)	> 100 µM (inactive)	–	–	–
COc1ccc(/C=C\c2cc(OC)c3c(c2)OCO3)c(O)c1O	2.8 µM (inactive)	8.53 µM (inactive)	5.55 µM (inactive)	5.53 µM (inactive)	2.08 µM (inactive)	4.78 µM (inactive)	6.95 µM (inactive)	1.7 µM (inactive)	5.87 µM (inactive)	6.05 µM (inactive)	11.2 µM (inactive)	14.1 µM (inactive)	18.6 µM (inactive)	2.79 µM (inactive)	0.0256 µM (active)	21.2 µM (inactive)	–	–	–
CC1CC(C)C(O)C(C2CC(CC(=O)NC3CCCCC3)CC(=O)O2)C1 (stereo unspecified)	> 100 µM (inactive)	–	> 100 µM (inactive)	> 100 µM (inactive)	> 100 µM (inactive)	> 100 µM (inactive)	> 100 µM (inactive)	> 100 µM (inactive)	–	> 100 µM (inactive)	> 100 µM (inactive)	> 100 µM (inactive)	–	> 100 µM (inactive)	> 100 µM (inactive)	> 100 µM (inactive)	> 100 µM (inactive)	> 100 µM (inactive)	> 100 µM (inactive)
Cc1cc(N(CCC#N)CCC#N)ccc1/C=C1N=C(/C=C/c2ccccc2)N(c2ccc(S(N)(=O)=O)cc2)C\1=O	> 100 µM (inactive)	> 100 µM (inactive)	> 100 µM (inactive)	> 100 µM (inactive)	> 100 µM (inactive)	> 100 µM (inactive)	> 100 µM (inactive)	> 100 µM (inactive)	> 100 µM (inactive)	> 100 µM (inactive)	> 100 µM (inactive)	> 100 µM (inactive)	> 100 µM (inactive)	> 100 µM (inactive)	> 100 µM (inactive)	> 100 µM (inactive)	–	–	–
COc1ccc(C(=O)Cc2c(C(=O)c3ccccc3)c3ccccc3n2C(=O)c2ccccc2)cc1	38.3 µM (inactive)	> 100 µM (inactive)	25.2 µM (inactive)	> 100 µM (inactive)	> 100 µM (inactive)	37.7 µM (inactive)	37.2 µM (inactive)	47.1 µM (inactive)	32.9 µM (inactive)	78.2 µM (inactive)	53 µM (inactive)	> 100 µM (inactive)	–	> 100 µM (inactive)	18.3 µM (inactive)	> 100 µM (inactive)	–	–	–
CCOP(=O)(OCC)C1(O)CC(n2cc(C)c(=O)[nH]c2=O)OC1CO (stereo unspecified)	> 100 µM (inactive)	> 100 µM (inactive)	> 100 µM (inactive)	> 100 µM (inactive)	> 100 µM (inactive)	> 100 µM (inactive)	> 100 µM (inactive)	> 100 µM (inactive)	> 100 µM (inactive)	> 100 µM (inactive)	> 100 µM (inactive)	> 100 µM (inactive)	> 100 µM (inactive)	> 100 µM (inactive)	> 100 µM (inactive)	> 100 µM (inactive)	–	> 100 µM (inactive)	> 100 µM (inactive)
CC1(c2ccc(F)cc2)C2C(=O)NC(=O)C1C(=O)NC2=O (stereo unspecified)	> 100 µM (inactive)	> 100 µM (inactive)	> 100 µM (inactive)	> 100 µM (inactive)	> 100 µM (inactive)	> 100 µM (inactive)	–	> 100 µM (inactive)	> 100 µM (inactive)	–	> 100 µM (inactive)	> 100 µM (inactive)	> 100 µM (inactive)	> 100 µM (inactive)	> 100 µM (inactive)	> 100 µM (inactive)	–	–	–
CC1=NN(c2ccccc2)C(=O)C1=C1SCCS1	> 40 µM (inactive)	> 100 µM (inactive)	37 µM (inactive)	> 77.6 µM (inactive)	> 100 µM (inactive)	34.9 µM (inactive)	> 48 µM (inactive)	43 µM (inactive)	37.9 µM (inactive)	> 53.2 µM (inactive)	97.1 µM (inactive)	> 74.6 µM (inactive)	> 100 µM (inactive)	> 78.9 µM (inactive)	> 88.1 µM (inactive)	25.1 µM (inactive)	–	–	–
O=C(O)CNS(=O)(=O)c1ccc(NCc2ccccc2)cc1	–	> 100 µM (inactive)	> 100 µM (inactive)	> 100 µM (inactive)	> 100 µM (inactive)	–	> 100 µM (inactive)	> 100 µM (inactive)	> 100 µM (inactive)	> 100 µM (inactive)	> 100 µM (inactive)	> 100 µM (inactive)	> 100 µM (inactive)	> 100 µM (inactive)	> 100 µM (inactive)	> 100 µM (inactive)	–	–	–
